Assay [1] has as its target SRSF protein kinase 3 (Homo sapiens) (UniProt Q9UPE1). As to the kind of experiment: Inhibition of SRPK3 (unknown origin) at 1 uM by Ambit Kinomescan binding assay relative to control.
Assay [2] concerns the target Serine/threonine-protein kinase RIO1 (Homo sapiens) (UniProt Q9BRS2). Description: Inhibition of RIOK1 (unknown origin) at 1 uM by Ambit Kinomescan binding assay relative to control.
For assay [3], the target named is T1, Serine/threonine-protein kinase TAO3 (Homo sapiens) (UniProt Q9H2K8).
T1 sequence (whole entry): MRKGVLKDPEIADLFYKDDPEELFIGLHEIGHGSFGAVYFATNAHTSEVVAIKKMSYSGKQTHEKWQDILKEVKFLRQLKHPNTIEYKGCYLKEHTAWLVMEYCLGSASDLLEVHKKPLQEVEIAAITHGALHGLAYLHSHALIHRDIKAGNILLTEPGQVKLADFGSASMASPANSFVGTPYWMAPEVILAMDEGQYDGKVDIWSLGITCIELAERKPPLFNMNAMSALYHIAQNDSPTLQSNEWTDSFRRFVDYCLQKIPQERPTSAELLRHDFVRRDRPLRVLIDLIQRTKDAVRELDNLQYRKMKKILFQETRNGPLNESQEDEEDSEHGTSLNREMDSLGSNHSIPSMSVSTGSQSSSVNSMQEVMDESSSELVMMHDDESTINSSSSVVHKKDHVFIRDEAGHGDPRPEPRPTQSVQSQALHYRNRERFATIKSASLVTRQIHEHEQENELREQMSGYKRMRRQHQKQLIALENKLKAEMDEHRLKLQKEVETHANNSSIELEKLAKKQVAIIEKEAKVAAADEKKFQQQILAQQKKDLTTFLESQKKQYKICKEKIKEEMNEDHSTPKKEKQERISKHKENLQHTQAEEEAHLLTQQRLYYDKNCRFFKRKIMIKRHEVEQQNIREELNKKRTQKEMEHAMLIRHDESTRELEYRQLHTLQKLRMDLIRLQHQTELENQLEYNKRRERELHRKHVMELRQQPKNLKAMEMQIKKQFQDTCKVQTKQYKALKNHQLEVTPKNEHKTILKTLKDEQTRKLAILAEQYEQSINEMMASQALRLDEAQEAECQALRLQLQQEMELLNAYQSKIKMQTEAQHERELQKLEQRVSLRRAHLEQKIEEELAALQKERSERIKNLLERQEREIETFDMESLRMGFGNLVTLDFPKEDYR
Description: Inhibition of TAO3 Lys2 labeling site in human A-375 cells at 5 uM by KiNativ Profiling analysis relative to control. The format is cell-based.

Assay [4] addresses AP2-associated protein kinase 1 (Homo sapiens) (UniProt Q2M2I8). As to the kind of experiment: Inhibition of AAK1 (unknown origin) at 1 uM by Ambit Kinomescan binding assay relative to control.
The target of assay [5] is Ribosomal protein S6 kinase alpha-1 (Homo sapiens) (UniProt Q15418). Description: Inhibition of RSK1 Domain 1 ACT labeling site in human Huh-7 cells at 10 uM by KiNativ Profiling analysis relative to control. The assay is classed as cell-based.
Chain of Ribosomal protein S6 kinase alpha-1 (Homo sapiens) (Q15418 whole entry, the tested form may be a part): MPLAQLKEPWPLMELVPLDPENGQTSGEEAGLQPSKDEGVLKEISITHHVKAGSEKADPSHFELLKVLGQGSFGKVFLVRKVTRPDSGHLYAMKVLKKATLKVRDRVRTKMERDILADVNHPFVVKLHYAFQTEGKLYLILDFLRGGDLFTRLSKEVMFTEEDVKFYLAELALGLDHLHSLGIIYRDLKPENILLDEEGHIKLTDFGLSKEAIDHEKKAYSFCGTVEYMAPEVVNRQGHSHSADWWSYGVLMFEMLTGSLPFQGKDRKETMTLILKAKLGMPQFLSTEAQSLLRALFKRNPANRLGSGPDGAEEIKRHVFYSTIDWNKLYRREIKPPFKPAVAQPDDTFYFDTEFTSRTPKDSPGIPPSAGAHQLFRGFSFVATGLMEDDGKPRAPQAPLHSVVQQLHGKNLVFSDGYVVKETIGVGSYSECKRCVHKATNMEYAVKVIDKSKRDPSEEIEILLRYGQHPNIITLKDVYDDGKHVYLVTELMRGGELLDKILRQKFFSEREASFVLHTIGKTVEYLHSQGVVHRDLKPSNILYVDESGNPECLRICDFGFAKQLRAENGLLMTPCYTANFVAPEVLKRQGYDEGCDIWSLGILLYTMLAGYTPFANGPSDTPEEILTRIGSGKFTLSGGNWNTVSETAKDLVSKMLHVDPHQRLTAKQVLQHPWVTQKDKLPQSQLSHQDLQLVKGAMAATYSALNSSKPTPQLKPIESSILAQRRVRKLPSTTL
The target in assay [6] is Focal adhesion kinase 1 (Homo sapiens) (UniProt Q05397). Description: Inhibition of FAK Lys1 labeling site in human A-375 cells at 5 uM by KiNativ Profiling analysis relative to control. The format is cell-based.
Assay [7] deals with 5'-AMP-activated protein kinase catalytic subunit alpha-1 (Homo sapiens) (UniProt Q13131). Description: Inhibition of AMPKa1 ATP labeling site in human Huh-7 cells at 10 uM by KiNativ Profiling analysis relative to control. The assay is classed as cell-based.
Assay [8] has as its target Serine/threonine-protein kinase pim-1 (Homo sapiens) (UniProt P11309). Description: Inhibition of PIM1 (unknown origin) at 10 uM by Ambit Kinomescan binding assay.
The target of assay [9] is Phosphorylase b kinase gamma catalytic chain, skeletal muscle/heart isoform (Homo sapiens) (UniProt Q16816). As to the kind of experiment: Inhibition of PHKG1 (unknown origin) at 10 uM by Ambit Kinomescan binding assay.
Chain of Phosphorylase b kinase gamma catalytic chain, skeletal muscle/heart isoform (Homo sapiens) (Q16816 whole entry, looked up, canonical isoform): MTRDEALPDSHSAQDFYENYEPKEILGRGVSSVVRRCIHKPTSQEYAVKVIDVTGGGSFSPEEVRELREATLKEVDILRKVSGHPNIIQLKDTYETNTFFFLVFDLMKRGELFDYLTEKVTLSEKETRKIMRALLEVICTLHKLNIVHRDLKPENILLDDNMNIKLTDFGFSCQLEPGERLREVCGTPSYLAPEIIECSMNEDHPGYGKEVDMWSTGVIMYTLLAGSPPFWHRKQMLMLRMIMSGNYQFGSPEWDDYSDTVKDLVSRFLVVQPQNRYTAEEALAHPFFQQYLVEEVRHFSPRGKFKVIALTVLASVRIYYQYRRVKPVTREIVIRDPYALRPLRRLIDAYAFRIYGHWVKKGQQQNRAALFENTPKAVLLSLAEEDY
Assay [10] concerns the target Serine/threonine-protein kinase PAK 6 (Homo sapiens) (UniProt Q9NQU5). Description: Inhibition of PAK6 (unknown origin) at 10 uM by Ambit Kinomescan binding assay.
For assay [11], the target named is Tyrosine-protein kinase Yes (Homo sapiens) (UniProt P07947). Description: Inhibition of YES ACT labeling site in human Huh-7 cell lysate at 1 uM by KiNativ Profiling analysis relative to control. The format is subcellular.
The target of assay [12] is T2, Interleukin-1 receptor-associated kinase 4 (Homo sapiens) (UniProt Q9NWZ3).
T2 sequence (whole entry): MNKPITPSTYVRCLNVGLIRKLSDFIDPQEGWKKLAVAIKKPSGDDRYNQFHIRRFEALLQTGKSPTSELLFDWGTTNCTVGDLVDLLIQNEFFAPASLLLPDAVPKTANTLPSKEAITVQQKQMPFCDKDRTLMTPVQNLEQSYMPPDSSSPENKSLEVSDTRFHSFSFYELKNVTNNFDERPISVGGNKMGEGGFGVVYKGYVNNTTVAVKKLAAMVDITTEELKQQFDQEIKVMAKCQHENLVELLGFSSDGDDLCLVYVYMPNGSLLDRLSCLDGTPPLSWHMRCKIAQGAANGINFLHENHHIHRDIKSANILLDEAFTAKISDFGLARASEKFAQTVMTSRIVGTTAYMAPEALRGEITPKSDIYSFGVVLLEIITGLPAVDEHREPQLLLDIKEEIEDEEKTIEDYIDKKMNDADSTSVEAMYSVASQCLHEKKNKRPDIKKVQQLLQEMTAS
Description: Inhibition of IRAK4 Lys2 labeling site in human Huh-7 cell lysate at 1 uM by KiNativ Profiling analysis relative to control. The assay is classed as subcellular.

Assay [13] has as its target Mitogen-activated protein kinase kinase kinase 4 (Homo sapiens) (UniProt Q9Y6R4). Description: Inhibition of MAP3K4 Lys1 labeling site in human Huh-7 cell lysate at 1 uM by KiNativ Profiling analysis relative to control. The format is subcellular.

The inhibition is the change of the read-out against control, counted positive when it falls.

Activity calls are given as the source filed them. The rule behind the calls is not given here.

Chain of SRSF protein kinase 3 (Homo sapiens) (Q9UPE1 whole entry): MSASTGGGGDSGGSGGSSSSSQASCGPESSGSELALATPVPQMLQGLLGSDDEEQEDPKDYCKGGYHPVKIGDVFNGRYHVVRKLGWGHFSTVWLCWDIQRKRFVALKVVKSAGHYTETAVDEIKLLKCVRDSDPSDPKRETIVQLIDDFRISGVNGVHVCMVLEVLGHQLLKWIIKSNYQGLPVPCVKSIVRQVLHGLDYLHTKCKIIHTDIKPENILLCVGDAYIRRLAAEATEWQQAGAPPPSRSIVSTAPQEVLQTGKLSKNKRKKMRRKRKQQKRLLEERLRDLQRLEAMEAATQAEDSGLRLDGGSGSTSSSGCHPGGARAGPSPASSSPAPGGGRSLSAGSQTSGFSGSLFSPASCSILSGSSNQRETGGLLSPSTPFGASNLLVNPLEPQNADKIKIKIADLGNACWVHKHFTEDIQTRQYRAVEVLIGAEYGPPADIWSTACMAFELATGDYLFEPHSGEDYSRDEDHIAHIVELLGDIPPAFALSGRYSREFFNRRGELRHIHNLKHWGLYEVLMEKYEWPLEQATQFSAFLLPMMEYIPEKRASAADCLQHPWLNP
Chain of Serine/threonine-protein kinase pim-1 (Homo sapiens) (P11309 whole entry, looked up, canonical isoform): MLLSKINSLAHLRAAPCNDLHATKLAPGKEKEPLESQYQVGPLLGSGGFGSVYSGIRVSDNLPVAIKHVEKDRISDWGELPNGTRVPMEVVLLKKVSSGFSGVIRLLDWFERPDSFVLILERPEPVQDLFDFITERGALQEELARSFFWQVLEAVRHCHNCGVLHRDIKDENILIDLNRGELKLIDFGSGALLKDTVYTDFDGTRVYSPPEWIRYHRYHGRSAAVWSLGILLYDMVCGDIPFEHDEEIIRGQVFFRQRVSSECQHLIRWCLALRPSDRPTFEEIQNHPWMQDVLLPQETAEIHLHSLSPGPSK
Chain of Mitogen-activated protein kinase kinase kinase 4 (Homo sapiens) (Q9Y6R4 whole entry): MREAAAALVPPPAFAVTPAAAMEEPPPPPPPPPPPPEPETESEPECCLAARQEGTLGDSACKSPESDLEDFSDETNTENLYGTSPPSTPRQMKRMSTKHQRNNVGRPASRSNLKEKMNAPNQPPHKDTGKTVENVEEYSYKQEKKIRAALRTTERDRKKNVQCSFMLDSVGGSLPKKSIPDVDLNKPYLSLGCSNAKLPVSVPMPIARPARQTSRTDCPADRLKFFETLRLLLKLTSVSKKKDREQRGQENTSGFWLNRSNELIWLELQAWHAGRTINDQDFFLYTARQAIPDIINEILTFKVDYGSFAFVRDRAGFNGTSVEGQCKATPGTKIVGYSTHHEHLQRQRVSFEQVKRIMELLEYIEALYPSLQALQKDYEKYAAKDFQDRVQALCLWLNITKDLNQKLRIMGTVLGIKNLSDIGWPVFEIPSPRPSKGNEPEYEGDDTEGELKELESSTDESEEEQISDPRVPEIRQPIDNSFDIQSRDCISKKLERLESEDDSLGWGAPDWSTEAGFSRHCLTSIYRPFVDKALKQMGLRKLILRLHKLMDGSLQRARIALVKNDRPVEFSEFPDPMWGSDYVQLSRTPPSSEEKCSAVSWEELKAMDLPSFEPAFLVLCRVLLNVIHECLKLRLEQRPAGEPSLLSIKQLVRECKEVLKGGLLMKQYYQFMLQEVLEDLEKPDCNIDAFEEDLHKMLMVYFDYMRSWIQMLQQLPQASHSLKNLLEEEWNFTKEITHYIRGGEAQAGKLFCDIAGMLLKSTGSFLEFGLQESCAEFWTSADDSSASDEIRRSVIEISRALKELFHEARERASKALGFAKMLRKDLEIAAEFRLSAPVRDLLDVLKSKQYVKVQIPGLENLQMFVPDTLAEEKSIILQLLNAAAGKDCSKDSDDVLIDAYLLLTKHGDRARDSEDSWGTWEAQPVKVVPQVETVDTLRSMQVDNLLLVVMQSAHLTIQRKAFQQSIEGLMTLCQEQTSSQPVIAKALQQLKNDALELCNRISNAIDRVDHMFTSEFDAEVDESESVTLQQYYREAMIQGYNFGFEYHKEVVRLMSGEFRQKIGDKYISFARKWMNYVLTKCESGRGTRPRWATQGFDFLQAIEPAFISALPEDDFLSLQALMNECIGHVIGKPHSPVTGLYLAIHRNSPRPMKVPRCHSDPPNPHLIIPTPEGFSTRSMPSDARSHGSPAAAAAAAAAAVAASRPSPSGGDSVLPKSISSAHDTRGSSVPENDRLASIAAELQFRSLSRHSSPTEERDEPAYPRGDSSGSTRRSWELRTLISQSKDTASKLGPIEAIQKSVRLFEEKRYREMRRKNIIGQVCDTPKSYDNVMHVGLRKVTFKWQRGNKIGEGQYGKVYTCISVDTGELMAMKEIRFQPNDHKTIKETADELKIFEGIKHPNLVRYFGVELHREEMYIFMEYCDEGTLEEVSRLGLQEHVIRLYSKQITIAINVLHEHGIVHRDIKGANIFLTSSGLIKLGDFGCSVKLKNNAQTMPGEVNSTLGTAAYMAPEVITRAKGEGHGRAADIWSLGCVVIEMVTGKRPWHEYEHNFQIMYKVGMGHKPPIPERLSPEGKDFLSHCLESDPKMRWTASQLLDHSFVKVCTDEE
Chain of Serine/threonine-protein kinase RIO1 (Homo sapiens) (Q9BRS2 whole entry): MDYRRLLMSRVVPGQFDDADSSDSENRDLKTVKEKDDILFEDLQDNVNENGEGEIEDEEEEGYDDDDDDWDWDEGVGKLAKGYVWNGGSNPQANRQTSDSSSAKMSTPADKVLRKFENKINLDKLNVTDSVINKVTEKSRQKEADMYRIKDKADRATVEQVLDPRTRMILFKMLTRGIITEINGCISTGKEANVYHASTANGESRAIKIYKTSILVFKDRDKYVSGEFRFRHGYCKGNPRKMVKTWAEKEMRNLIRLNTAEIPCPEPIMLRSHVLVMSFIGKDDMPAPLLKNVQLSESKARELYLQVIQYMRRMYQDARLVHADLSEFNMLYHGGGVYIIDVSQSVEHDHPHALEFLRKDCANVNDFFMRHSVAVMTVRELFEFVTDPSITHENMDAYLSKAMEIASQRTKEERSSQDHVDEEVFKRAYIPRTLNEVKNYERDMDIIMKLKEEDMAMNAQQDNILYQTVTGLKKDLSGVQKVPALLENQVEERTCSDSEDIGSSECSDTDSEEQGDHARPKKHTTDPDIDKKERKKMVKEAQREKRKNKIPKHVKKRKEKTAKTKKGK
Chain of Serine/threonine-protein kinase PAK 6 (Homo sapiens) (Q9NQU5 whole entry, looked up): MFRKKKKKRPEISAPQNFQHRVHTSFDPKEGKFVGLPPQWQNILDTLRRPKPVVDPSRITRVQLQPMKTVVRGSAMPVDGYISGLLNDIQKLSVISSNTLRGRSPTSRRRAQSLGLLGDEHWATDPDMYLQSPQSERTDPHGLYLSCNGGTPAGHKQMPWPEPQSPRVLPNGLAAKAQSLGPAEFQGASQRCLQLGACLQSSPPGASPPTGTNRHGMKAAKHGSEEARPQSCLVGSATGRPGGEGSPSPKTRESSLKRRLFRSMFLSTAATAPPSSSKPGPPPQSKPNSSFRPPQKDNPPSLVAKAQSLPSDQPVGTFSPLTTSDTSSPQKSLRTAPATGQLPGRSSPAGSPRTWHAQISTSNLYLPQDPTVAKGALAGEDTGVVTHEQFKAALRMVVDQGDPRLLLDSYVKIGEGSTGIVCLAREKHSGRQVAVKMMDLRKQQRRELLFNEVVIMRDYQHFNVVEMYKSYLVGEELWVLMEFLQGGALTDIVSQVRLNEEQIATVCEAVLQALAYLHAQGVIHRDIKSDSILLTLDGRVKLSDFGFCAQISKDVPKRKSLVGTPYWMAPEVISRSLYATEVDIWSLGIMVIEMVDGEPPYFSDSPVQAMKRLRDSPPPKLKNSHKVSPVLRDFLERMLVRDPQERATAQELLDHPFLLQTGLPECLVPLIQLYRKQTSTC

Consider `CCN1CCN(Cc2ccc(NC(=O)c3ccc(C)c(/C=C/c4cnc5[nH]ccc5c4OC)c3)cc2C(F)(F)F)CC1`, for which the inhibition in assay [1] turned out to be 37%; in [2], 20%; in assay [3], 66.2%; in [4], 67%.

As to `CCN1CCN(Cc2ccc(NC(=O)c3ccc(C)c(Oc4ccnc5[nH]ccc45)c3)cc2C(F)(F)F)CC1`, the inhibition in assay [5] was 3.4%; in assay [6], 13.8%; in assay [7], 14%. The inhibition entry in assay [8], in assay [9] and in assay [10] was “inactive” in each case.

For `CNc1cc(Oc2cc(C(=O)Nc3cc(N4CCN(C)CC4)cc(C(F)(F)F)c3)ccc2C)ncn1`, the inhibition was 22% in [11], 8.4% in [12] and -1.7% in assay [13].

For the origin of these results see ChEMBL document CHEMBL5696442, “Discovery of type II inhibitors of TGFβ-activated kinase 1 (TAK1) and mitogen-activated protein kinase kinase kinase kinase 2 (MAP4K2)” (J Med Chem, 2015).
